Laboratory results reported in patent US11230526B1, “Cylcoalkenyl derivatives useful as agonists of the GPR120 and/or GPR40 receptors” (Janssen Pharmaceutica NV, priority 2018, dated 2022).

biological target: T1, long form of human GPR120 (Homo sapiens, UniProt Q5NUL3); experiment: Human GPR120 DiscoveRx PathHunter Beta-Arrestin assay, Procedure β-arrestin A; type: cell-based
T1 construct: host or cells: PathHunter CHO-K1 GPR120 β-Arrestin Cell Line
In short: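 PathHunter CHO-K1 cells expressing long-form human GPR120 (3000/well) were seeded overnight. They were then preincubated 60 min in HBSS with 20 mM HEPES and 0.1% BSA, pH 7.4, and exposed to compound for 90 min at 37 °C. β-Arrestin recruitment was read as β-gal complementation luminescence. EC50 came from % activity versus positive control, Hill slope fixed at 1.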

T1 sequence (Q5NUL3 1-377 isoform Q5NUL3-1): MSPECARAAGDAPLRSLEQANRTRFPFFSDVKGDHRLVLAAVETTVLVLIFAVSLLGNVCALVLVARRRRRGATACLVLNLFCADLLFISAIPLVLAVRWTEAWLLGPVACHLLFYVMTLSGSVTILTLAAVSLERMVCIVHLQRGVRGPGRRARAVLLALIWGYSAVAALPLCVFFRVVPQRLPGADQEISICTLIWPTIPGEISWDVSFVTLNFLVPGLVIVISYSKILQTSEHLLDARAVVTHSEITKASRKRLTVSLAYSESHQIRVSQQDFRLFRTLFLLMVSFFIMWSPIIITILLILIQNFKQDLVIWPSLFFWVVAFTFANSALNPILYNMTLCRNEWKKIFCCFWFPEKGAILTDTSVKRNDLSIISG
T1 sequence (P32121 whole entry partner): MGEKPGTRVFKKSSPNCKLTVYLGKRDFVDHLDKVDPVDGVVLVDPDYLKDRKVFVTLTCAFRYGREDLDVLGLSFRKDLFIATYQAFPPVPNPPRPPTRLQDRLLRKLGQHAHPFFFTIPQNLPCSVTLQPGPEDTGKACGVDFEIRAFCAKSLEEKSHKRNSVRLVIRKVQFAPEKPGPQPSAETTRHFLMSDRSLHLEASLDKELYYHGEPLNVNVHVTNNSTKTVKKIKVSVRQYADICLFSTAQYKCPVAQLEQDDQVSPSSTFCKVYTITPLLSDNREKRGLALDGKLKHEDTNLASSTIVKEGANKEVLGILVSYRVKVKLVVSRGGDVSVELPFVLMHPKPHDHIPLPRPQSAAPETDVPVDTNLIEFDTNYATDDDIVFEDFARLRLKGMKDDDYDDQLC

EC50 | Structure (SMILES)
73 nM | Cc1ccc(C2=C(COc3ccc(CCC(=O)O)c(C)c3C)CCC2)cc1F [Compound 80, 3-(4-((2-(3-fluoro-4-methylphenyl)cyclopent-1-en-1-yl)methoxy)-2,3-dimethylphenyl)Propanoic Acid]
43 nM | Cc1c(CCC(=O)O)ccc(OCC2=C(c3ccc(Cl)cc3)CC(F)(F)C2)c1C [Compound 137, 3-[4-[[2-(4-chlorophenyl)-4,4-difluoro-cyclopenten-1-yl]methoxy]-2,3-dimethyl-phenyl]Propanoic Acid]
168 nM | Cc1c(CCC(=O)O)ccc(OCC2=C(c3ccc(Cl)cc3)CCC(F)(F)C2)c1C [Compound 468, 3-[4-[[2-(4-chlorophenyl)-5,5-difluoro-cyclohexen-1-yl]methoxy]-2,3-dimethyl-phenyl]Propanoic Acid]
354 nM | Cc1c(CCC(=O)O)ccc(OCC2=C(c3ccc(Cl)cc3)CCCC2)c1C [Compound 474, 3-[4-[[2-(4-chlorophenyl)cyclohexen-1-yl]methoxy]-2,3-dimethyl-phenyl]Propanoic Acid]
